# Experimental data taken from the supplement of paper PMC10307832.
# Legend:
# Experiment in all cases: relative viability (nuclei count vs DMSO), 5 days (fraction); higher = more cells survive
# EPLC-272H = tested on: EPLC-272H
# How it was run: (§1)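 Dosing by pin tool came one day after lung cancer cell lines were seeded in 1536-well plates, using either one drug or a fixed anchor-drug dose plus five library-drug doses (not always all listed) in √10 steps. After 5 days, nuclei were counted on 4× images. Relative viability is treated-well nuclei count divided by vehicle-well nuclei count, and values are medians of duplicate plates.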
# LCLC-97TM1 = tested on: LCLC-97TM1
# How it was run: as §1
# RERF-LC-KJ = tested on: RERF-LC-KJ
# How it was run: as §1
# NCI-H1915 = tested on: NCI-H1915
# How it was run: as §1
# NCI-H661 = tested on: NCI-H661
# How it was run: as §1
# PC-14 = tested on: PC-14
# How it was run: as §1
# NCI-H1666 = tested on: NCI-H1666
# How it was run: as §1
# HCC-827 = tested on: HCC-827
# How it was run: as §1
# NCI-H647 = tested on: NCI-H647
# How it was run: as §1
# H3255 = tested on: H3255
# How it was run: as §1
# LC-2-ad = tested on: LC-2-ad
# How it was run: as §1
# NCI-H23 = tested on: NCI-H23
# How it was run: as §1
structure (smiles),measurement,setting,value
COc1cc(N2CCC(C(N)=O)CC2)ccc1Nc1nc(N)c(Cl)c(Nc2ccccc2S(=O)(=O)C(C)C)n1 [HG-5-88-01] + Cc1nc(Nc2ncc(C(=O)Nc3c(C)cccc3Cl)s2)cc(N2CCN(CCO)CC2)n1 [Dasatinib] (partner 0.075 µM),relative viability,EPLC-272H; first compound 0.04 µM,0.49
same,relative viability,EPLC-272H; first compound 0.1265 µM,0.31
same,relative viability,EPLC-272H; first compound 0.4 µM,0.226
same,relative viability,EPLC-272H; first compound 1.265 µM,0.121
same,relative viability,EPLC-272H; first compound 4 µM,0.0712
same,relative viability,LCLC-97TM1; first compound 0.04 µM,0.753
same,relative viability,LCLC-97TM1; first compound 0.1265 µM,0.956
same,relative viability,LCLC-97TM1; first compound 0.4 µM,0.481
same,relative viability,LCLC-97TM1; first compound 1.265 µM,0.714
same,relative viability,LCLC-97TM1; first compound 4 µM,0.477
same,relative viability,RERF-LC-KJ; first compound 0.04 µM,0.804
same,relative viability,RERF-LC-KJ; first compound 0.1265 µM,0.81
same,relative viability,RERF-LC-KJ; first compound 0.4 µM,0.671
same,relative viability,RERF-LC-KJ; first compound 1.265 µM,0.465
same,relative viability,RERF-LC-KJ; first compound 4 µM,0.41
same,relative viability,NCI-H1915; first compound 0.04 µM,0.347
same,relative viability,NCI-H1915; first compound 0.1265 µM,0.316
same,relative viability,NCI-H1915; first compound 0.4 µM,0.295
same,relative viability,NCI-H1915; first compound 1.265 µM,0.314
same,relative viability,NCI-H1915; first compound 4 µM,0.239
same,relative viability,NCI-H661; first compound 0.04 µM,0.939
same,relative viability,NCI-H661; first compound 0.1265 µM,0.941
same,relative viability,NCI-H661; first compound 0.4 µM,0.791
same,relative viability,NCI-H661; first compound 1.265 µM,0.514
same,relative viability,NCI-H661; first compound 4 µM,0.664
same,relative viability,PC-14; first compound 0.04 µM,0.234
same,relative viability,PC-14; first compound 0.1265 µM,0.185
same,relative viability,PC-14; first compound 0.4 µM,0.0685
same,relative viability,PC-14; first compound 1.265 µM,0.0374
same,relative viability,PC-14; first compound 4 µM,0.0307
same,relative viability,NCI-H1666; first compound 0.04 µM,0.873
same,relative viability,NCI-H1666; first compound 0.1265 µM,0.837
same,relative viability,NCI-H1666; first compound 0.4 µM,0.643
same,relative viability,NCI-H1666; first compound 1.265 µM,0.539
same,relative viability,NCI-H1666; first compound 4 µM,0.389
same,relative viability,HCC-827; first compound 0.04 µM,0.279
same,relative viability,HCC-827; first compound 0.1265 µM,0.271
same,relative viability,HCC-827; first compound 0.4 µM,0.235
same,relative viability,HCC-827; first compound 1.265 µM,0.101
same,relative viability,HCC-827; first compound 4 µM,0.118
same,relative viability,NCI-H647; first compound 0.04 µM,0.162
same,relative viability,NCI-H647; first compound 0.1265 µM,0.216
same,relative viability,NCI-H647; first compound 0.4 µM,0.114
same,relative viability,NCI-H647; first compound 1.265 µM,0.0855
same,relative viability,NCI-H647; first compound 4 µM,0.112
same,relative viability,H3255; first compound 0.04 µM,0.338
same,relative viability,H3255; first compound 0.1265 µM,0.411
same,relative viability,H3255; first compound 0.4 µM,0.355
same,relative viability,H3255; first compound 4 µM,0.2
same,relative viability,LC-2-ad; first compound 0.04 µM,0.633
same,relative viability,LC-2-ad; first compound 0.1265 µM,0.469
same,relative viability,LC-2-ad; first compound 0.4 µM,0.261
same,relative viability,LC-2-ad; first compound 1.265 µM,0.287
same,relative viability,LC-2-ad; first compound 4 µM,0.205
same,relative viability,NCI-H23; first compound 0.04 µM,0.703
same,relative viability,NCI-H23; first compound 0.1265 µM,0.84
same,relative viability,NCI-H23; first compound 0.4 µM,0.51
same,relative viability,NCI-H23; first compound 1.265 µM,0.588
same,relative viability,NCI-H23; first compound 4 µM,0.265
